Values of other authors as cited in patent US20050003028A1, “Composition for protection and regeneration of structure and function of the liver” (priority 2001, published 2005).

Details: in vivo

For Sylimarin, the “re-absorbtion into digestive system” value is listed as “weak”.
